This note sets out measurements from ChEMBL document CHEMBL1201862, “PubChem BioAssay data set” (2004).

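Five compound concentrations were applied to cells in 96-well plates for 48 hours; endpoints were derived by simple linear interpolation of the resulting dose-response curve. GI50 is the concentration that inhibits growth by half.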 The source made the active and inactive calls. Rule as the data show it: active = GI50 up to about 1.1 µM and inactive = higher.

Some test systems named below: BT-549; OVCAR-4; U-251; OVCAR-8; OVCAR-5; SR; SNB-19; TK-10; SW-620; NCI-H522; SK-OV-3; COLO 205; HT-29; DU-145; A498; KM12; SF-539; 786-0; HL-60; SNB-75.
Holding throughout (test): NCI-60 cell line screen, 48 h

For `Cc1nn(-c2ccccc2)c2c1CC(=O)Nc1ccccc1-2`, the GI50 was 0.687 µM (active) in the assay with BT-549; 18.5 µM (inactive) with OVCAR-4; 0.743 µM (active) in the assay on U-251; 2.06 µM (inactive) in the assay on OVCAR-8; 4.82 µM (inactive) in the assay on OVCAR-5; 0.269 µM (active) in the assay with SR. The GI50 is 2.55 µM (inactive) in the assay with SNB-19; 0.566 µM (active) in the assay with TK-10; 0.374 µM (active) with SW-620; 0.509 µM (active) with NCI-H522; 1.81 µM (inactive) with SK-OV-3; 0.538 µM (active) in the assay with COLO 205. The GI50 in the assay on HT-29 is 0.424 µM (active); with DU-145 it was 2.65 µM (inactive); in the assay on A498, 1.59 µM (inactive); in the assay with KM12, 0.571 µM (active); in the assay with SF-539, 0.607 µM (active); in the assay with 786-0, 0.951 µM (active). In addition, the GI50 was 0.236 µM (active) in the assay with HL-60 and 0.482 µM (active) with SNB-75.
On to `CC1C(OC2O[C@@H]3O[C@@]4(C)CC[C@H]5[C@H](C)CC[C@@H](C2C)[C@@]35O4)O[C@@H]2O[C@@]3(C)CC[C@H]4[C@H](C)CC[C@@H]1[C@@]24O3` (stereo not given in full), for which the GI50 in the assay on BT-549, in the assay with OVCAR-4, with U-251, in the assay with OVCAR-8, in the assay with OVCAR-5 and with SR was > 50 µM (inactive) each time. For the same compound, the GI50 in the assay on SNB-19 is > 50 µM (inactive); in the assay with TK-10 it was > 50 µM (inactive); in the assay on SW-620, > 50 µM (inactive); with NCI-H522 it was 19.3 µM (inactive); with SK-OV-3 it was > 50 µM (inactive); in the assay on COLO 205 it was > 50 µM (inactive). Besides, the GI50 with HT-29, in the assay with DU-145, with A498, in the assay on KM12, in the assay with SF-539 and in the assay on 786-0 was > 50 µM (inactive) in each case. The GI50 with HL-60 and with SNB-75 was > 50 µM (inactive) in each case.
Regarding `Cc1cc(/N=N/c2c(O)ccc3ccccc23)ccc1/N=N/c1cccc([N+](C)(C)C)c1`, the GI50 in the assay on BT-549 is 3.08 µM (inactive); with OVCAR-4 it was > 27.1 µM (inactive); in the assay on U-251, 1.58 µM (inactive); with OVCAR-8, 10.1 µM (inactive); in the assay on OVCAR-5 it was 17.7 µM (inactive); in the assay with SR, 7.69 µM (inactive). For the same compound, the GI50 is 3.71 µM (inactive) with SNB-19; 29.5 µM (inactive) with TK-10; 10.1 µM (inactive) with SW-620; 3.98 µM (inactive) in the assay with NCI-H522; 21.3 µM (inactive) with SK-OV-3; 2.47 µM (inactive) in the assay on COLO 205. Besides, the GI50 was 3.66 µM (inactive) in the assay with HT-29; 19.6 µM (inactive) with DU-145; 44.7 µM (inactive) in the assay on A498; 3.37 µM (inactive) in the assay on KM12; 5.71 µM (inactive) in the assay with SF-539; 21 µM (inactive) with 786-0. Further, the GI50 in the assay with HL-60 is 2.38 µM (inactive); in the assay on SNB-75, 4 µM (inactive).
With `CC(C)[C@](O)(C(=O)OCC1=CC[N+]2([O-])CC[C@@H](O)[C@@H]12)[C@H](C)O` (stereo not given in full) [INDICINE N-OXIDE], the GI50 in the assay on BT-549 is > 10000 µM (inactive); in the assay with OVCAR-4, > 10000 µM (inactive); with U-251, > 8570 µM (inactive); in the assay on OVCAR-8, 8110 µM (inactive); in the assay with OVCAR-5 it was > 10000 µM (inactive); in the assay on SR, 4630 µM (inactive). Moreover, the GI50 in the assay on SNB-19 was > 10000 µM (inactive); with TK-10, > 10000 µM (inactive); in the assay on SW-620, > 10000 µM (inactive); in the assay with NCI-H522, > 7410 µM (inactive); in the assay on SK-OV-3, > 10000 µM (inactive); in the assay on COLO 205, > 5940 µM (inactive). For the same compound, the GI50 with HT-29 was > 10000 µM (inactive); in the assay on DU-145, > 10000 µM (inactive); with A498 it was 8970 µM (inactive); in the assay with KM12 it was > 10000 µM (inactive); in the assay with SF-539, > 9080 µM (inactive); in the assay with 786-0, > 9270 µM (inactive). The GI50 in the assay on HL-60 was 3230 µM (inactive); in the assay with SNB-75 it was > 9750 µM (inactive).
For `O=C(Nc1ccc2nc(O)n[n+]([O-])c2c1)C(F)(F)F`, the GI50 in the assay on BT-549, in the assay with OVCAR-4, with U-251, in the assay on OVCAR-8, in the assay with OVCAR-5 and in the assay on SR was > 100 µM (inactive) each time. The GI50 with SNB-19, in the assay with TK-10, in the assay with SW-620, in the assay with NCI-H522, in the assay on SK-OV-3 and with COLO 205 was > 100 µM (inactive) each time. Further, the GI50 with HT-29, with DU-145, in the assay with A498, in the assay on KM12, in the assay with SF-539 and with 786-0 was > 100 µM (inactive) throughout. Moreover, the GI50 in the assay on HL-60 and in the assay on SNB-75 was > 100 µM (inactive) in each case.
As for `Cc1c(CCOC=O)c(=O)[nH]c2nncn12`, the GI50 in the assay on BT-549, with OVCAR-4, in the assay with U-251, in the assay with OVCAR-8, in the assay on OVCAR-5 and in the assay with SR was > 100 µM (inactive) each time. Besides, the GI50 in the assay with SNB-19, with TK-10, in the assay on SW-620, with NCI-H522, in the assay on SK-OV-3 and in the assay with COLO 205 was > 100 µM (inactive) each time. Moreover, the GI50 in the assay with HT-29, with DU-145, with A498, with KM12, with SF-539 and with 786-0 was > 100 µM (inactive) each time. Moreover, the GI50 in the assay with HL-60 and in the assay with SNB-75 was > 100 µM (inactive) throughout.
For the compound `CSc1ncc2c(n1)-c1ccccc1OC2NC1CC1` (stereo not given), the GI50 in the assay on BT-549 is 38 µM (inactive); in the assay on OVCAR-4 it was 30.6 µM (inactive); in the assay with U-251 it was 76.2 µM (inactive); in the assay with OVCAR-8, 71.4 µM (inactive); in the assay on OVCAR-5, > 100 µM (inactive); in the assay with SR, > 100 µM (inactive). The GI50 with SNB-19 is > 100 µM (inactive); in the assay with TK-10, 32.7 µM (inactive); in the assay on SW-620 it was > 100 µM (inactive); in the assay on NCI-H522, 24.8 µM (inactive); with SK-OV-3 it was > 100 µM (inactive); with COLO 205, > 100 µM (inactive). In addition, the GI50 is > 100 µM (inactive) with HT-29; 63 µM (inactive) in the assay with DU-145; 13.7 µM (inactive) in the assay on A498; 73.5 µM (inactive) in the assay on KM12; > 100 µM (inactive) with SF-539; > 100 µM (inactive) in the assay on 786-0. In addition, the values for the GI50 in the assay with HL-60 and with SNB-75 were 30.2 µM (inactive) and 59 µM (inactive), respectively.
Take `O=S(=O)(CCCCl)SCCCCl`: the GI50 in the assay with BT-549 is 11.2 µM (inactive); in the assay on OVCAR-4, 15.3 µM (inactive); in the assay with U-251 it was 45.9 µM (inactive); with OVCAR-8, 13.3 µM (inactive); in the assay with OVCAR-5, > 64 µM (inactive); in the assay with SR, 10.4 µM (inactive). Moreover, the GI50 was > 95.1 µM (inactive) with SNB-19; 74.6 µM (inactive) with TK-10; 19.1 µM (inactive) with SW-620; 17.1 µM (inactive) in the assay on NCI-H522; > 83 µM (inactive) with SK-OV-3; 29 µM (inactive) in the assay with COLO 205. Besides, the GI50 is 25.9 µM (inactive) in the assay with HT-29; 63.8 µM (inactive) in the assay with DU-145; > 55.6 µM (inactive) in the assay on A498; 46.3 µM (inactive) with KM12; 19.4 µM (inactive) in the assay on SF-539; 17.4 µM (inactive) in the assay with 786-0. Besides, the values for the GI50 in the assay on HL-60 and in the assay with SNB-75 were 9.91 µM (inactive) and 33 µM (inactive), respectively.
In the case of `COc1ccc(/C=C/C(=O)/C=C/c2ccc(OC)cc2)cc1`, the GI50 in the assay on BT-549 is 29.4 µM (inactive); with OVCAR-4 it was 43.5 µM (inactive); with U-251, 23.7 µM (inactive); in the assay with OVCAR-8 it was 17.6 µM (inactive); in the assay with OVCAR-5 it was > 100 µM (inactive); with SR, 22.5 µM (inactive). The GI50 with SNB-19 was > 100 µM (inactive); in the assay with TK-10 it was 73.3 µM (inactive); in the assay on SW-620, 23.7 µM (inactive); in the assay on NCI-H522, 42.8 µM (inactive); in the assay on SK-OV-3, > 100 µM (inactive); with COLO 205, 34.5 µM (inactive). Besides, the GI50 is 29.3 µM (inactive) with HT-29; > 100 µM (inactive) in the assay with DU-145; > 100 µM (inactive) in the assay with A498; 24 µM (inactive) in the assay on KM12; 26.4 µM (inactive) in the assay on SF-539; 46.5 µM (inactive) in the assay with 786-0. In addition, the GI50 was 20 µM (inactive) in the assay on HL-60 and 38.9 µM (inactive) in the assay on SNB-75.
